Among the data in BindingDB's records for patent US9707233 (Incyte Holdings Corporation, 2017) are IC50 values, retold here.

Broadly, the IC50 is the concentration that inhibits the measured activity by half. Low values mean greater potency in that assay, high ones weaker potency in that assay.

The target in this assay is T1, Phosphatidylinositol 4,5-bisphosphate 3-kinase catalytic subunit delta isoform (Homo sapiens, UniProt O00329).
T1 sequence (O00329 whole entry): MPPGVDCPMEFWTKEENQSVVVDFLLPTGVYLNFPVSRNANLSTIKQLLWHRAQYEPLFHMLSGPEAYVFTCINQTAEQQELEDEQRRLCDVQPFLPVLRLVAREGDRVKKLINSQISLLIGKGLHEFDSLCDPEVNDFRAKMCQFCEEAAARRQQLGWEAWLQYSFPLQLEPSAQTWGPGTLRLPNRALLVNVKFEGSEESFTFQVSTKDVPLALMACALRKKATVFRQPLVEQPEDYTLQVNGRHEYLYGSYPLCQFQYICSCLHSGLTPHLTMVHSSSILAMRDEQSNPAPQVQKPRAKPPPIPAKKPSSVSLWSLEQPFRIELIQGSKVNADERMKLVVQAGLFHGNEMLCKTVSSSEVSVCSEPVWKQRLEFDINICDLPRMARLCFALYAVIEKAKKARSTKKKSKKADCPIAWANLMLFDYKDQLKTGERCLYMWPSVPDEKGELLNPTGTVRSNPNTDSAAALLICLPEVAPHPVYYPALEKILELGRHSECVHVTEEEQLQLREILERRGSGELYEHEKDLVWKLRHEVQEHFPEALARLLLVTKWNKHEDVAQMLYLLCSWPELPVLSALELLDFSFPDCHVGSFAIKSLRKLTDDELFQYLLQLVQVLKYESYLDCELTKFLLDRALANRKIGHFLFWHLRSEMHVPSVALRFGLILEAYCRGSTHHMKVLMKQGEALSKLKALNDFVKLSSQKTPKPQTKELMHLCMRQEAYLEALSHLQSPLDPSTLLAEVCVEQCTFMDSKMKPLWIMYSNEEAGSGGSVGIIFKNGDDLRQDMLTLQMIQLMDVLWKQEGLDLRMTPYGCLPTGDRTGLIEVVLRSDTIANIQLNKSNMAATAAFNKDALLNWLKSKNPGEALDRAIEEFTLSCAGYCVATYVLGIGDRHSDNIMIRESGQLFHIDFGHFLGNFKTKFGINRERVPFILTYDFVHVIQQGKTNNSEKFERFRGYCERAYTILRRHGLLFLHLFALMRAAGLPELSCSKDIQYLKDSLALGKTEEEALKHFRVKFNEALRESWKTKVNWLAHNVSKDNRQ
The assay can be described thus: A2 PI3Kdelta Scintillation Proximity Assay. To be noted: pH 6.7; 25 °C. The method, then: PI3K isoforms α, β, δ and γ are purchased from Millipore (Bedford, Mass.). […] Inhibitors are first diluted serially in DMSO and added to the plate wells before the addition of other reaction components. The final concentration of DMSO in the assay is 0.5%. The PI3K assays are carried out at room temperature in 20 mM MOPS, pH 6.7, 10 mM MgCl2, 5 mM DTT and CHAPS 0.03%. The reaction mixture is prepared containing 50 μM PIP2, kinase and varying concentration of inhibitors. […] Reactions are incubated for 180 minutes and terminated by the addition of 100 μL of 1 M potassium phosphate pH 8.0, 30 mM EDTA quench buffer. A 100 μL aliquot of the reaction solution are then transferred to 96-well Millipore MultiScreen IP 0.45 μm PVDF filter plate (The filter plate is prewetted with 200 μL 100% ethanol, distilled water, and 1 M potassium phosphate pH 8.0, respectively). […] After drying by aspiration and blotting, the plate is air dried in an incubator at 37° C. overnight. Packard TopCount adapter (Millipore) is then attached to the plate followed with addition of 120 μL Microscint 20 scintillation cocktail (Perkin Elmer) in each well. After the plate sealing, the radioactivity of the product is determined by scintillation counting on Topcount (Perkin-Elmer). […]
(In general: SPA uses beads or plates that emit light when radiolabelled molecules are held near them.)

Regarding `COc1c(C(C)n2nc(C)c3c(N)ncnc32)cc(Cl)c(C)c1C1CN(CC(F)F)C1` (single isomer, unassigned) [US9707233, 112], the IC50 is < 0.01 µM.
Turning to `CCOc1c(C(C)n2nc(C)c3c(N)ncnc32)cc(Cl)c(C#N)c1C1CN(C(C)(C)C(=O)N(C)C)C1` (single isomer, unassigned) [US9707233, 241], the IC50 was < 0.01 µM.
